Key:
Assay in all cases: relative viability (nuclei count vs DMSO), 5 days (fraction); higher = more cells survive
[1] = tested on: NCI-H1915
Summary of the method: (§1)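 The day after seeding in 1536-well plates, lung cancer cell lines were treated by pin tool with a single drug, or with a fixed anchor-drug dose together with five library-drug doses (not always all listed) in √10 steps. After 5 days, a combined fix-and-stain solution (final 0.05% Triton X-100, 1% formaldehyde, 1 ug/ml Hoechst) was added. Nuclei counted on 4× images gave relative viability as treated counts over vehicle counts, reported as the median of duplicate plates.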

[2] = tested on: NCI-H647
Summary of the method: as §1

[3] = tested on: SK-LU-1
Summary of the method: as §1

[4] = tested on: PC-3 [JPC-3]
Summary of the method: as §1

[5] = tested on: NCI-H1755
Summary of the method: as §1

[6] = tested on: HCC-15
Summary of the method: as §1

[7] = tested on: NCI-H2228
Summary of the method: as §1

[8] = tested on: NCI-H2347
Summary of the method: as §1

[9] = tested on: SW 1573
Summary of the method: as §1

[10] = tested on: LC-2-ad
Summary of the method: as §1

[11] = tested on: LXF-289
Summary of the method: as §1

[12] = tested on: NCI-H2126
Summary of the method: as §1

[13] = tested on: RERF-LC-KJ
Summary of the method: as §1

[14] = tested on: NCI-H1734
Summary of the method: as §1

[15] = tested on: NCI-H1792
Summary of the method: as §1

[16] = tested on: NCI-H1975
Summary of the method: as §1

[17] = tested on: HOP-62
Summary of the method: as §1

[18] = tested on: A-427
Summary of the method: as §1

[19] = tested on: HCC-78
Summary of the method: as §1

Structure (SMILES): CC(=O)O[C@@]12CO[C@@H]1C[C@H](O)[C@@]1(C)C(=O)[C@H](O)C3=C(C)[C@@H](OC(=O)[C@H](O)[C@@H](NC(=O)OC(C)(C)C)c4ccccc4)C[C@@](O)([C@@H](OC(=O)c4ccccc4)[C@H]21)C3(C)C [Docetaxel] + CC1(C)CCC(c2ccc(Cl)cc2)=C(CN2CCN(c3ccc(C(=O)NS(=O)(=O)c4ccc(N[C@H](CCN5CCOCC5)CSc5ccccc5)c(S(=O)(=O)C(F)(F)F)c4)cc3)CC2)C1 [Navitoclax] (partner 0.5 µM)
- relative viability ([1]; first compound 0.0002 µM): 0.789
- relative viability ([1]; first compound 0.000632 µM): 0.774
- relative viability ([1]; first compound 0.002 µM): 0.524
- relative viability ([1]; first compound 0.006325 µM): 0.102
- relative viability ([1]; first compound 0.02 µM): 0.0504
- relative viability ([2]; first compound 0.0002 µM): 1.21
- relative viability ([2]; first compound 0.000632 µM): 0.597
- relative viability ([2]; first compound 0.002 µM): 0.245
- relative viability ([2]; first compound 0.006325 µM): 0.125
- relative viability ([2]; first compound 0.02 µM): 0.0526
- relative viability ([3]; first compound 0.0002 µM): 0.721
- relative viability ([3]; first compound 0.000632 µM): 0.454
- relative viability ([3]; first compound 0.002 µM): 0.141
- relative viability ([3]; first compound 0.006325 µM): 0.215
- relative viability ([3]; first compound 0.02 µM): 0.112
- relative viability ([4]; first compound 0.0002 µM): 0.82
- relative viability ([4]; first compound 0.000632 µM): 0.721
- relative viability ([4]; first compound 0.002 µM): 0.527
- relative viability ([4]; first compound 0.006325 µM): 0.229
- relative viability ([4]; first compound 0.02 µM): 0.202
- relative viability ([5]; first compound 0.0002 µM): 0.982
- relative viability ([5]; first compound 0.000632 µM): 0.98
- relative viability ([5]; first compound 0.002 µM): 0.401
- relative viability ([5]; first compound 0.006325 µM): 0.232
- relative viability ([5]; first compound 0.02 µM): 0.136
- relative viability ([6]; first compound 0.0002 µM): 0.636
- relative viability ([6]; first compound 0.000632 µM): 0.372
- relative viability ([6]; first compound 0.002 µM): 0.221
- relative viability ([6]; first compound 0.006325 µM): 0.161
- relative viability ([6]; first compound 0.02 µM): 0.0988
- relative viability ([7]; first compound 0.0002 µM): 0.854
- relative viability ([7]; first compound 0.000632 µM): 0.35
- relative viability ([7]; first compound 0.002 µM): 0.156
- relative viability ([7]; first compound 0.006325 µM): 0.114
- relative viability ([7]; first compound 0.02 µM): 0.056
- relative viability ([8]; first compound 0.0002 µM): 0.844
- relative viability ([8]; first compound 0.000632 µM): 0.653
- relative viability ([8]; first compound 0.002 µM): 0.408
- relative viability ([8]; first compound 0.006325 µM): 0.359
- relative viability ([8]; first compound 0.02 µM): 0.258
- relative viability ([9]; first compound 0.0002 µM): 1.06
- relative viability ([9]; first compound 0.000632 µM): 0.204
- relative viability ([9]; first compound 0.002 µM): 0.15
- relative viability ([9]; first compound 0.006325 µM): 0.0763
- relative viability ([9]; first compound 0.02 µM): 0.0456
- relative viability ([10]; first compound 0.0002 µM): 0.237
- relative viability ([10]; first compound 0.000632 µM): 0.18
- relative viability ([10]; first compound 0.002 µM): 0.114
- relative viability ([10]; first compound 0.006325 µM): 0.0942
- relative viability ([10]; first compound 0.02 µM): 0.0914
- relative viability ([11]; first compound 0.0002 µM): 0.96
- relative viability ([11]; first compound 0.000632 µM): 0.796
- relative viability ([11]; first compound 0.002 µM): 0.585
- relative viability ([11]; first compound 0.006325 µM): 0.142
- relative viability ([11]; first compound 0.02 µM): 0.0718
- relative viability ([12]; first compound 0.0002 µM): 0.873
- relative viability ([12]; first compound 0.000632 µM): 0.954
- relative viability ([12]; first compound 0.002 µM): 0.735
- relative viability ([12]; first compound 0.006325 µM): 0.334
- relative viability ([12]; first compound 0.02 µM): 0.227
- relative viability ([13]; first compound 0.0002 µM): 0.754
- relative viability ([13]; first compound 0.000632 µM): 0.576
- relative viability ([13]; first compound 0.002 µM): 0.174
- relative viability ([13]; first compound 0.006325 µM): 0.202
- relative viability ([13]; first compound 0.02 µM): 0.154
- relative viability ([14]; first compound 0.0002 µM): 0.697
- relative viability ([14]; first compound 0.000632 µM): 0.819
- relative viability ([14]; first compound 0.002 µM): 0.323
- relative viability ([14]; first compound 0.02 µM): 0.104
- relative viability ([15]; first compound 0.0002 µM): 0.441
- relative viability ([15]; first compound 0.000632 µM): 0.614
- relative viability ([15]; first compound 0.002 µM): 0.437
- relative viability ([15]; first compound 0.02 µM): 0.0744
- relative viability ([16]; first compound 0.0002 µM): 1.1
- relative viability ([16]; first compound 0.000632 µM): 1.11
- relative viability ([16]; first compound 0.002 µM): 0.276
- relative viability ([16]; first compound 0.006325 µM): 0.252
- relative viability ([16]; first compound 0.02 µM): 0.156
- relative viability ([17]; first compound 0.0002 µM): 0.878
- relative viability ([17]; first compound 0.000632 µM): 0.552
- relative viability ([17]; first compound 0.002 µM): 0.312
- relative viability ([17]; first compound 0.02 µM): 0.0795
- relative viability ([18]; first compound 0.0002 µM): 0.987
- relative viability ([18]; first compound 0.000632 µM): 0.926
- relative viability ([18]; first compound 0.002 µM): 0.641
- relative viability ([18]; first compound 0.006325 µM): 0.26
- relative viability ([18]; first compound 0.02 µM): 0.181
- relative viability ([19]; first compound 0.0002 µM): 0.75
- relative viability ([19]; first compound 0.000632 µM): 0.455
- relative viability ([19]; first compound 0.002 µM): 0.244
- relative viability ([19]; first compound 0.006325 µM): 0.242
- relative viability ([19]; first compound 0.02 µM): 0.158
